Laboratory results: the supplement of paper PMC10307832

How the values were obtained:
Assay in all cases: relative viability (nuclei count vs DMSO), 5 days (fraction); higher = more cells survive
Trametinib + Olaparib = compound: CC(=O)Nc1cccc(-n2c(=O)n(C3CC3)c(=O)c3c(Nc4ccc(I)cc4F)n(C)c(=O)c(C)c32)c1 [Trametinib] + O=C(c1cc(Cc2n[nH]c(=O)c3ccccc23)ccc1F)N1CCN(C(=O)C2CC2)CC1 [Olaparib] (partner 8 µM)
Method in brief: (§1)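 Medians of duplicate plates are given as relative viability. That measure is the nuclei count in treated wells divided by the count in vehicle wells. Counts were taken on 4× images of lung cancer cell lines in 1536-well plates, 5 days after pin-tool dosing the day after seeding with one drug alone or a fixed anchor-drug dose plus five library-drug doses (not always all listed) in √10 steps.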

Trametinib + Linsitinib = compound: CC(=O)Nc1cccc(-n2c(=O)n(C3CC3)c(=O)c3c(Nc4ccc(I)cc4F)n(C)c(=O)c(C)c32)c1 [Trametinib] + C[C@]1(O)C[C@@H](c2nc(-c3ccc4ccc(-c5ccccc5)nc4c3)c3c(N)nccn32)C1 [Linsitinib] (partner 1 µM)
Method in brief: as §1

Trametinib + Palbociclib = compound: CC(=O)Nc1cccc(-n2c(=O)n(C3CC3)c(=O)c3c(Nc4ccc(I)cc4F)n(C)c(=O)c(C)c32)c1 [Trametinib] + CC(=O)c1c(C)c2cnc(Nc3ccc(N4CCNCC4)cn3)nc2n(C2CCCC2)c1=O [Palbociclib] (partner 0.5 µM)
Method in brief: as §1

[1] = compound: CN1C=C(C2=CC=CC=C21)/C=C\3/C4=C(C=CC=N4)NC3=O + COc1cc2c(Oc3ccc(NC(=O)C4(C(=O)Nc5ccc(F)cc5)CC4)cc3F)ccnc2cc1OCCCN1CCOCC1 [Foretinib] (partner 0.25 µM)
Method in brief: as §1

Cell Line	relative viability (Trametinib + Olaparib; first compound 0.0025 µM)	relative viability (Trametinib + Olaparib; first compound 0.007906 µM)	relative viability (Trametinib + Olaparib; first compound 0.025 µM)	relative viability (Trametinib + Olaparib; first compound 0.07906 µM)	relative viability (Trametinib + Olaparib; first compound 0.25 µM)	relative viability (Trametinib + Linsitinib; first compound 0.0025 µM)	relative viability (Trametinib + Linsitinib; first compound 0.007906 µM)	relative viability (Trametinib + Linsitinib; first compound 0.025 µM)	relative viability (Trametinib + Linsitinib; first compound 0.07906 µM)	relative viability (Trametinib + Linsitinib; first compound 0.25 µM)	relative viability (Trametinib + Palbociclib; first compound 0.0025 µM)	relative viability (Trametinib + Palbociclib; first compound 0.007906 µM)	relative viability (Trametinib + Palbociclib; first compound 0.025 µM)	relative viability (Trametinib + Palbociclib; first compound 0.07906 µM)	relative viability (Trametinib + Palbociclib; first compound 0.25 µM)	relative viability ([1]; first compound 0.02 µM)	relative viability ([1]; first compound 0.06325 µM)	relative viability ([1]; first compound 0.2 µM)	relative viability ([1]; first compound 0.6325 µM)	relative viability ([1]; first compound 2 µM)
201T	0.841	0.782	0.747	0.678	0.642	1.01	1.02	0.863	0.959	0.778	0.344	0.321	0.284	0.322	0.272	1.27	1	0.983	0.773	0.713
A549	0.29	0.27	0.14	0.211	0.0478	0.461	0.387	0.203	0.231	0.0933	–	–	–	–	–	1.03	0.97	1.04	1.13	1.16
A-427	0.748	0.828	0.729	0.671	0.524	1.11	1.14	0.631	0.825	0.432	0.534	0.511	0.45	0.45	0.372	1.18	1.21	–	0.958	1.1
ABC-1	0.821	0.725	0.977	0.752	1.13	0.673	0.462	0.537	0.421	0.41	0.448	0.668	0.357	0.49	0.338	0.929	1.08	1.16	1.13	1.13
BEN	1.15	1.04	0.995	1.01	1.02	0.81	0.762	–	0.687	0.882	0.455	0.479	0.455	0.475	0.468	0.66	0.742	–	0.483	0.484
CAL-12T	0.692	0.555	0.522	0.511	0.487	0.79	0.607	0.484	0.428	0.341	0.387	0.193	0.179	0.171	0.187	1.08	1.03	1.08	1.08	1.03
COR-L23	0.422	0.473	0.43	0.392	0.261	0.874	0.851	0.827	0.639	0.306	0.317	0.246	0.191	0.143	0.14	1.11	1.04	0.92	1.1	1.08
COR-L 105	0.738	0.76	0.498	0.466	0.417	0.788	0.754	0.49	0.394	0.367	0.39	0.44	0.421	0.34	0.347	1.09	0.993	0.834	0.957	0.952
Calu-6	0.589	0.452	0.214	0.142	0.129	0.951	0.719	0.35	0.15	0.124	–	–	–	–	–	0.818	0.893	0.727	0.779	0.834
ChaGo-K-1	0.435	0.405	0.405	0.412	0.359	–	–	–	–	–	0.926	0.778	0.912	0.852	0.75	0.921	0.911	0.828	0.861	0.918
EBC-1	0.745	0.681	0.543	0.179	0.195	1	1.15	0.456	0.407	0.189	–	–	–	–	–	0.0992	0.108	0.0997	0.0962	0.0995
EKVX	0.795	0.66	0.61	0.472	0.316	0.875	0.757	0.767	0.632	0.282	0.375	0.401	0.173	0.182	0.182	0.877	0.842	0.806	0.662	0.773
EMC-BAC-2	0.638	0.623	0.617	0.69	0.476	0.744	0.754	0.634	0.674	0.537	0.581	0.555	0.495	0.502	0.357	1.04	0.996	1.01	1.06	1.08
EPLC-272H	0.628	0.406	0.332	0.322	0.173	1.23	0.89	0.471	0.659	0.489	0.293	0.303	0.262	0.207	0.239	0.564	0.677	0.603	–	0.663
H3255	0.559	0.533	0.476	0.461	0.411	1.02	0.822	0.795	0.855	0.575	0.339	0.356	0.357	0.342	0.365	1.26	0.954	0.72	0.742	0.899
HARA	0.696	0.832	0.664	0.449	0.308	0.757	0.736	0.673	0.535	0.237	0.236	0.202	0.205	0.192	0.198	0.94	0.68	–	0.818	0.848
HCC-15	0.766	0.39	0.447	0.369	0.3	0.694	0.447	0.294	0.239	0.186	0.704	0.427	0.307	0.232	0.222	0.947	0.935	1.03	1.01	0.998
HCC-44	0.96	1.06	1.08	0.897	0.87	0.734	0.592	0.334	0.43	0.321	0.974	1.01	1.08	1.03	1.02	–	–	–	–	–
HCC-78	0.774	0.642	0.82	0.808	0.557	0.543	0.323	0.314	0.354	0.36	0.452	0.46	0.398	0.457	0.449	0.545	0.554	–	0.509	0.552

Cell Line	relative viability (Trametinib + Olaparib; first compound 0.0025 µM)	relative viability (Trametinib + Olaparib; first compound 0.007906 µM)	relative viability (Trametinib + Olaparib; first compound 0.025 µM)	relative viability (Trametinib + Olaparib; first compound 0.07906 µM)	relative viability (Trametinib + Olaparib; first compound 0.25 µM)	relative viability (Trametinib + Linsitinib; first compound 0.0025 µM)	relative viability (Trametinib + Linsitinib; first compound 0.007906 µM)	relative viability (Trametinib + Linsitinib; first compound 0.025 µM)	relative viability (Trametinib + Linsitinib; first compound 0.07906 µM)	relative viability (Trametinib + Linsitinib; first compound 0.25 µM)	relative viability (Trametinib + Palbociclib; first compound 0.0025 µM)	relative viability (Trametinib + Palbociclib; first compound 0.007906 µM)	relative viability (Trametinib + Palbociclib; first compound 0.025 µM)	relative viability (Trametinib + Palbociclib; first compound 0.07906 µM)	relative viability (Trametinib + Palbociclib; first compound 0.25 µM)	relative viability ([1]; first compound 0.02 µM)	relative viability ([1]; first compound 0.06325 µM)	relative viability ([1]; first compound 0.2 µM)	relative viability ([1]; first compound 0.6325 µM)	relative viability ([1]; first compound 2 µM)
HCC-366	0.294	0.293	0.206	0.145	0.0982	0.538	0.288	0.196	0.133	0.116	0.307	0.287	0.137	0.0839	0.0678	0.934	1.01	0.886	0.916	0.896
HCC-827	0.612	0.571	0.563	0.507	0.337	0.958	0.893	0.944	0.886	0.753	0.461	0.395	0.423	0.296	0.289	0.851	1.01	–	1.18	0.893
HOP-62	0.395	0.377	0.417	0.376	0.125	1.06	0.921	0.705	0.487	0.152	0.505	0.444	0.397	0.231	0.158	1.11	1.17	1.22	1.13	1.12
IA-LM	0.826	0.74	0.244	0.242	0.167	0.574	0.553	0.142	0.218	0.145	–	–	–	–	–	1.28	1.01	1.12	1.19	1.23
LC-2-ad	0.683	0.663	0.706	0.695	0.604	0.871	0.716	0.729	0.502	0.381	0.5	0.452	0.461	0.381	0.404	0.901	0.843	0.864	1.03	0.931
LCLC-97TM1	0.304	0.41	0.254	0.188	0.0956	0.185	0.195	0.147	0.133	0.119	0.166	0.141	0.15	0.13	0.115	0.891	0.793	0.91	1.03	0.921
LCLC-103H	0.723	0.638	0.655	0.593	0.581	0.968	0.897	0.746	0.904	0.933	0.484	0.44	0.483	0.468	0.507	0.735	0.685	0.813	0.802	0.858
NCI-H522	0.617	0.485	0.583	0.555	0.545	–	–	–	–	–	1.01	0.936	0.693	0.859	0.668	–	–	–	–	–
NCI-H596	0.664	0.594	0.589	0.516	0.463	1.04	0.851	0.769	0.774	0.76	–	–	–	–	–	0.963	0.89	0.871	0.742	0.855
NCI-H1299	1.04	1	0.942	0.832	0.587	0.955	0.953	0.9	0.726	0.386	–	–	–	–	–	1.09	1.1	1.16	1.07	1.02
NCI-H1563	–	–	–	–	–	1.22	1.08	1.1	1.12	0.808	–	–	–	–	–	1.04	0.897	0.955	0.943	0.901
NCI-H1623	–	–	–	–	–	–	–	–	–	–	–	–	–	–	–	0.838	0.878	0.701	0.712	0.755
NCI-H1648	0.828	0.671	0.88	0.653	0.555	–	–	–	–	–	0.251	0.284	0.278	0.336	0.303	–	–	–	–	–
NCI-H1650	0.852	0.735	0.638	0.568	0.332	–	–	–	–	–	0.34	0.38	0.34	0.357	0.158	1.21	1.05	0.98	1.26	1.22
NCI-H1703	0.492	0.513	0.323	0.385	0.274	0.692	0.821	0.674	0.72	0.352	–	–	–	–	–	0.345	0.354	0.311	0.347	0.349
NCI-H1792	0.479	0.415	0.348	0.186	0.244	0.489	0.39	0.363	0.234	0.164	0.6	0.51	0.49	0.382	0.303	–	–	–	–	–
NCI-H2170	0.654	0.609	–	0.548	0.52	–	–	–	–	–	0.4	0.419	–	0.399	0.342	1.02	1.03	1.03	0.94	1.04
NCI-H2342	0.404	0.4	0.327	0.359	0.399	–	–	–	–	–	0.48	0.511	0.425	0.446	0.477	1.15	0.927	1.05	0.914	1.13
SW 900	0.838	0.782	0.669	0.809	0.518	–	–	–	–	–	0.56	0.49	0.483	0.457	0.383	0.961	0.702	–	0.866	0.723
